Paper PMC7705649 (Scientific Reports, 2020)
“And” between values parts separate entries of the source, which are not always exact repeats. Equal entries are not always repeated. Where two headings read alike, the source gives them in different places.

Legend:
[1] = target: T1, human serum albumin (Homo sapiens, UniProt P02768); conditions: binding percentage to human serum albumin, biomimetic column, ± RSD (%)
[2] = test system: α1-acid-glycoprotein; test: Plasma protein binding on biomimetic AGP column; assay type: in vitro ADME; conditions: for PPBAGP (%): binding percentage to α1-acid-glycoprotein, biomimetic column, ± RSD (%)
[3] = RP-HPLC hydrophobicity determination (C18 column); assay type: physicochemical; conditions: Symmetry C18, phosphate-buffered saline/methanol, y-intercept of log k vs methanol fraction, 25 °C; ± 95% confidence interval
Protocol: All HPLC measurements were carried out on an Agilent 1100 series HPLC system (Agilent Technologies, Waldbronn, Germany) coupled with a diode array detector (DAD). System control, data collection and data processing were accomplished using ChemStation for LC 3D software by Agilent Technologies. RP-HPLC hydrophobicity determination was carried on Symmetry C18 reversed-phase column (150 × 4.6 mm, 3.5 µm particle size) obtained by Waters (Milford, MA, USA), with phosphate-buffered saline and methanol as mobile phase. The flow rate was set at 1.0 mL/min with the injection volume of 10.0 µL whilst the column temperature was maintained at 25.0 ± 0.1 °C. To obtain hydrophobicity, the log k values were calculated using retention times of investigated compounds (tR) and retention time of sodium nitrate as unretained compound (t0). […] At least five different concentrations of methanol in the mobile phase were applied for each standard substance and all measurements at each methanol fraction were performed in triplicates. […] Column equilibration time of 20 min was necessary after every change of mobile phase. Finally, log kw C18 value, describing hydrophobicity, was obtained by calculating the y-intercept of the regression line in a plot of log k vs. methanol fraction in the mobile phase.

[4] = Affinity for immobilized phospholipids (IAM chromatography); assay type: physicochemical; conditions: IAM.PC.DD2 column, phosphate-buffered saline/methanol, y-intercept of log k vs methanol fraction; ± 95% confidence interval
Description: The same HPLC conditions, mobile phases and calculation approaches were used for evaluation of IAM affinity, as in determining hydrophobicity with the RP-HPLC column.

[5] = target: T1, human serum albumin; test: Frontal analysis of FA on HSA column (HPAC); assay type: binding
Protocol: Frontal and zonal elution studies were carried out on HSA (Chiralpak-HSA, 50 × 4.6 mm, 5 μm particle size) biomimetic column obtained by ChromTech (Cedex, France). […] Injection volume was set at 10.0 µL and the measurements were carried out at 25.0 ± 0.1 °C.

T1 sequence (P02768 25-609): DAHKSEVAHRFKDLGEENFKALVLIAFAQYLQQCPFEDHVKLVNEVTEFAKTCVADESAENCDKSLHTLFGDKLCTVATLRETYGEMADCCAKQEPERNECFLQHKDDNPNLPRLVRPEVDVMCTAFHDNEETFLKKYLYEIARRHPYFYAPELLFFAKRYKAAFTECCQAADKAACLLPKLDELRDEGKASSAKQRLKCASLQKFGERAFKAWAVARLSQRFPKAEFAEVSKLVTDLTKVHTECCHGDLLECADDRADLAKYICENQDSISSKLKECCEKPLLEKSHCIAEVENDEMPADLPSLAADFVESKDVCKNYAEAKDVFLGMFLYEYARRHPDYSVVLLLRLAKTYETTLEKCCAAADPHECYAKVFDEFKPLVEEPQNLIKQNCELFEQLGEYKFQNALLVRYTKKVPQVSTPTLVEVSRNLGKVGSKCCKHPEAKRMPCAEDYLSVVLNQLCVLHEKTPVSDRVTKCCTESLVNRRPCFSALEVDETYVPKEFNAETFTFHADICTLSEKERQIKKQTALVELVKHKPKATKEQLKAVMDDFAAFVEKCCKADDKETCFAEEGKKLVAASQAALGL

PPBHSA (%) [1]	PPBAGP (%) [2]	affinity for AGP lower than for HSA ([2]; difference PPBHSA minus PPBAGP)	log kw C18 [3]	log kw IAM [4]	PPBHSA (%) ([1]; listed as folic acid)	moles of binding sites (mL) ([5]; frontal analysis, HSA column, brackets = 95% confidence interval)	type of binding site on HSA ([5]; linear double-reciprocal plot, 1-20 µM FA)	SMILES
91.64 ± 0.04%	77.60 ± 0.58%	14%	3.01 ± 0.09	1.20 ± 0.11	–	–	–	O=C(O)CCNC(=O)c1ccc(/N=N/c2ccc(O)c(C(=O)O)c2)cc1 [BSZ, balsalazide]
69.40 ± 0.53%	3.45%	–	0.99 and 0.99 ± 0.31	–	69.40%	2.34 (± 1.16) × 10^–7 mol	single type of binding site	Nc1nc2ncc(CNc3ccc(C(=O)N[C@@H](CCC(=O)O)C(=O)O)cc3)nc2c(=O)[nH]1 [FA, folic acid]
61.44 ± 0.51%	–	–	0.37 and 0.37 ± 0.19	0.17 and 0.17 ± 0.02	–	–	–	Nc1ccc(O)c(C(=O)O)c1 [MSZ, mesalazine]
96.00 ± 0.03%	–	–	3.25 ± 0.09	1.69 ± 0.17	–	–	–	O=C(O)c1cc(/N=N/c2ccc(O)c(C(=O)O)c2)ccc1O [OSZ, olsalazine]
–	–	–	3.71 ± 0.24	2.77 ± 0.23	–	–	–	O=C(O)c1cc(/N=N/c2ccc(S(=O)(=O)Nc3ccccn3)cc2)ccc1O [SASP, sulfasalazine]
